Key:
Assay type in all cases: in vivo
[1] = test system: Ipomoea purpurea; test: Post-emergence herbicidal effect; details: assessed visually after about 3 weeks vs untreated controls
In short: (§1)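 Seedlings at the one-leaf stage, about 2 to 3 weeks old, are sprayed on their foliage with compound suspended or emulsified in water containing 0.2% wetting agent. After roughly 3 weeks in the greenhouse, injury is estimated visually on a 0 to 100% scale.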

[2] = test system: Veronica persica; test: Post-emergence herbicidal effect; details: assessed visually after about 3 weeks vs untreated controls
In short: as §1

[3] = test system: Echinochloa crus-galli; test: Post-emergence herbicidal effect; details: assessed visually after about 3 weeks vs untreated controls
In short: as §1

[4] = test system: Amaranthus retroflexus; test: Post-emergence herbicidal effect; details: assessed visually after about 3 weeks vs untreated controls
In short: as §1

[5] = test system: Polygonum convolvulus; test: Post-emergence herbicidal effect; details: assessed visually after about 3 weeks vs untreated controls
In short: as §1

[6] = test system: Stellaria media; test: Post-emergence herbicidal effect; details: assessed visually after about 3 weeks vs untreated controls
In short: as §1

[7] = test system: Lolium multiflorum; test: Post-emergence herbicidal effect; details: 320 g/ha, assessed visually after about 3 weeks vs untreated controls
In short: as §1

[8] = test system: Matricaria inodora; test: Post-emergence herbicidal effect; details: assessed visually after about 3 weeks vs untreated controls
In short: as §1

[9] = test system: Viola tricolor; test: Post-emergence herbicidal effect; details: assessed visually after about 3 weeks vs untreated controls
In short: as §1

[10] = test system: Ipomoea purpurea; test: Pre-emergence herbicidal effect; details: Dosage 320 g/ha, scored visually after 3 weeks
In short: (§2)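 Scoring: visual, 3 weeks, % vs untreated (100% = died). Treatment: WP or EC in water, 0.2% wetting agent, sprayed on covering soil after sowing in sandy loam.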

[11] = test system: Veronica persica; test: Pre-emergence herbicidal effect; details: scored visually after 3 weeks
In short: as §2

[12] = test system: Echinochloa crus-galli; test: Pre-emergence herbicidal effect; details: scored visually after 3 weeks
In short: as §2

[13] = test system: Amaranthus retroflexus; test: Pre-emergence herbicidal effect; details: scored visually after 3 weeks
In short: as §2

[14] = test system: Alopecurus myosuroides; test: Pre-emergence herbicidal effect; details: scored visually after 3 weeks
In short: as §2

[15] = test system: Polygonum convolvulus; test: Pre-emergence herbicidal effect; details: scored visually after 3 weeks
In short: as §2

[16] = test system: Stellaria media; test: Pre-emergence herbicidal effect; details: scored visually after 3 weeks
In short: as §2

[17] = test system: Setaria viridis; test: Pre-emergence herbicidal effect; details: scored visually after 3 weeks
In short: as §2

[18] = test system: Lolium multiflorum; test: Pre-emergence herbicidal effect; details: Dosage 320 g/ha, scored visually after 3 weeks
In short: as §2

[19] = test system: Avena fatua; test: Pre-emergence herbicidal effect; details: Dosage 320 g/ha, scored visually after 3 weeks
In short: as §2

[20] = test system: Matricaria inodora; test: Pre-emergence herbicidal effect; details: scored visually after 3 weeks
In short: as §2

[21] = test system: Viola tricolor; test: Pre-emergence herbicidal effect; details: scored visually after 3 weeks
In short: as §2

[22] = test system: Alopecurus myosuroides; test: Post-emergence herbicidal effect; details: 320 g/ha, assessed visually after about 3 weeks vs untreated controls
In short: as §1

[23] = test system: Setaria viridis; test: Post-emergence herbicidal effect; details: assessed visually after about 3 weeks vs untreated controls
In short: as §1

[24] = test system: Abutilon theophrasti; test: Post-emergence herbicidal effect; details: assessed visually after about 3 weeks vs untreated controls
In short: as §1

[25] = test system: Abutilon theophrasti; test: Pre-emergence herbicidal effect; details: scored visually after 3 weeks
In short: as §2

In the case of `CS(=O)(=O)c1cnc(NC2CCCc3sccc32)nc1N` (racemic) [compound 23], the “post-emergence efficacy PHBPU” value ([1]; 80 g/ha) is reported as 80%, the “post-emergence efficacy PHBPU” value ([1]; 320 g/ha) is reported as 80% and the “post-emergence efficacy VERPE” value ([2]; 80 g/ha) is reported as 90%. The “post-emergence efficacy VERPE” value ([2]; 320 g/ha) was 90%, the “post-emergence efficacy ECHCG” value ([3]; 320 g/ha) was 80% and the “post-emergence efficacy AMARE” value ([4]; 80 g/ha) was 80%. For the same compound, the “post-emergence efficacy AMARE” value ([4]; 320 g/ha) was 80%, the “post-emergence efficacy POLCO” value ([5]; 320 g/ha) was 80% and the “post-emergence efficacy STEME” value ([6]; 320 g/ha) was 90%. The “post-emergence efficacy LOLMU” value [7] was 80%, the “post-emergence efficacy MATIN” value ([8]; 80 g/ha) was 80% and the “post-emergence efficacy MATIN” value ([8]; 320 g/ha) was 100%. The “post-emergence efficacy VIOTR” value ([9]; 80 g/ha) was 80%, the “post-emergence efficacy VIOTR” value ([9]; 320 g/ha) was 100% and the “PHBPU pre-emergence efficacy (herbicidal activity)” value (“PHBPU pre-emergence efficacy” below) [10] was 100%. The “VERPE pre-emergence efficacy (herbicidal activity)” value (“VERPE pre-emergence efficacy” below) ([11]; Dosage 80 g/ha) was 100%, the “VERPE pre-emergence efficacy” value ([11]; Dosage 320 g/ha) was 100% and the “ECHCG pre-emergence efficacy (herbicidal activity)” value (shortened to “ECHCG pre-emergence efficacy”) ([12]; Dosage 320 g/ha) was 100%. For the same compound, the “AMARE pre-emergence efficacy (herbicidal activity)” value (from here on “AMARE pre-emergence efficacy”) ([13]; Dosage 80 g/ha) was 100%, the “AMARE pre-emergence efficacy” value ([13]; Dosage 320 g/ha) was 100% and the “ALOMY pre-emergence efficacy (herbicidal activity)” value (shortened to “ALOMY pre-emergence efficacy”) ([14]; Dosage 320 g/ha) was 80%. The “POLCO pre-emergence efficacy (herbicidal activity)” value (from here on “POLCO pre-emergence efficacy”) ([15]; Dosage 80 g/ha) was 100%, the “POLCO pre-emergence efficacy” value ([15]; Dosage 320 g/ha) was 100% and the “STEME pre-emergence efficacy (herbicidal activity)” value (“STEME pre-emergence efficacy” below) ([16]; Dosage 80 g/ha) was 100%. The “STEME pre-emergence efficacy” value ([16]; Dosage 320 g/ha) was 100%, the “SETVI pre-emergence efficacy (herbicidal activity)” value (shortened to “SETVI pre-emergence efficacy”) ([17]; Dosage 320 g/ha) was 100% and the “LOLMU pre-emergence efficacy (herbicidal activity)” value [18] was 100%. The “AVEFA pre-emergence efficacy (herbicidal activity)” value [19] was 90%, the “MATIN pre-emergence efficacy (herbicidal activity)” value (“MATIN pre-emergence efficacy” below) ([20]; Dosage 80 g/ha) was 100% and the “MATIN pre-emergence efficacy” value ([20]; Dosage 320 g/ha) was 100%. For the same compound, the “VIOTR pre-emergence efficacy (herbicidal activity)” value (shortened to “VIOTR pre-emergence efficacy”) ([21]; Dosage 80 g/ha) was 100% and the “VIOTR pre-emergence efficacy” value ([21]; Dosage 320 g/ha) was 100%.

In the case of `Cc1cc2c(s1)CCCC2Nc1ncc(C(F)(F)F)c(N)n1` (racemic) [compound 61], the “post-emergence efficacy PHBPU” value ([1]; 80 g/ha) is reported as 90%, the “post-emergence efficacy PHBPU” value ([1]; 320 g/ha) is reported as 100% and the “post-emergence efficacy VERPE” value ([2]; 80 g/ha) is reported as 100%. The “post-emergence efficacy VERPE” value ([2]; 320 g/ha) was 100%, the “post-emergence efficacy ECHCG” value ([3]; 80 g/ha) was 100% and the “post-emergence efficacy ECHCG” value ([3]; 320 g/ha) was 100%. For the same compound, the “post-emergence efficacy AMARE” value ([4]; 80 g/ha) was 90%, the “post-emergence efficacy AMARE” value ([4]; 320 g/ha) was 90% and the “post-emergence efficacy ALOMY” value [22] was 100%. The “post-emergence efficacy POLCO” value ([5]; 80 g/ha) was 80%, the “post-emergence efficacy POLCO” value ([5]; 320 g/ha) was 90% and the “post-emergence efficacy STEME” value ([6]; 80 g/ha) was 100%. The “post-emergence efficacy STEME” value ([6]; 320 g/ha) was 100%, the “post-emergence efficacy SETVI” value ([23]; 80 g/ha) was 80% and the “post-emergence efficacy SETVI” value ([23]; 320 g/ha) was 90%. The “post-emergence efficacy ABUTH” value ([24]; 80 g/ha) was 90%, the “post-emergence efficacy ABUTH” value ([24]; 320 g/ha) was 90% and the “post-emergence efficacy LOLMU” value [7] was 90%. The “post-emergence efficacy MATIN” value ([8]; 320 g/ha) was 100%, the “post-emergence efficacy VIOTR” value ([9]; 80 g/ha) was 90% and the “post-emergence efficacy VIOTR” value ([9]; 320 g/ha) was 90%. The “PHBPU pre-emergence efficacy” value [10] was 90%, the “VERPE pre-emergence efficacy” value ([11]; Dosage 80 g/ha) was 100% and the “VERPE pre-emergence efficacy” value ([11]; Dosage 320 g/ha) was 100%. The “ECHCG pre-emergence efficacy” value ([12]; Dosage 80 g/ha) was 90%, the “ECHCG pre-emergence efficacy” value ([12]; Dosage 320 g/ha) was 90% and the “AMARE pre-emergence efficacy” value ([13]; Dosage 80 g/ha) was 100%. For the same compound, the “AMARE pre-emergence efficacy” value ([13]; Dosage 320 g/ha) was 100%, the “ALOMY pre-emergence efficacy” value ([14]; Dosage 80 g/ha) was 80% and the “ALOMY pre-emergence efficacy” value ([14]; Dosage 320 g/ha) was 100%. For the same compound, the “POLCO pre-emergence efficacy” value ([15]; Dosage 80 g/ha) was 90%, the “POLCO pre-emergence efficacy” value ([15]; Dosage 320 g/ha) was 90% and the “STEME pre-emergence efficacy” value ([16]; Dosage 80 g/ha) was 90%. The “STEME pre-emergence efficacy” value ([16]; Dosage 320 g/ha) was 100%, the “SETVI pre-emergence efficacy” value ([17]; Dosage 80 g/ha) was 100% and the “SETVI pre-emergence efficacy” value ([17]; Dosage 320 g/ha) was 100%. For the same compound, the “ABUTH pre-emergence efficacy (herbicidal activity)” value (“ABUTH pre-emergence efficacy” for short) ([25]; Dosage 80 g/ha) was 30%, the “ABUTH pre-emergence efficacy” value ([25]; Dosage 320 g/ha) was 100% and the “AVEFA pre-emergence efficacy (herbicidal activity)” value [19] was 80%. For the same compound, the “MATIN pre-emergence efficacy” value ([20]; Dosage 80 g/ha) was 100%, the “MATIN pre-emergence efficacy” value ([20]; Dosage 320 g/ha) was 100% and the “VIOTR pre-emergence efficacy” value ([21]; Dosage 80 g/ha) was 80%. For the same compound, the “VIOTR pre-emergence efficacy” value ([21]; Dosage 320 g/ha) was 100%.

`CCOC(=O)c1cnc(NC2CCCc3sc(C)cc32)nc1C` (racemic) [compound 240] was tested, and the “PHBPU pre-emergence efficacy” value [10] was 10%, the “VERPE pre-emergence efficacy” value ([11]; Dosage 80 g/ha) was 100% and the “VERPE pre-emergence efficacy” value ([11]; Dosage 320 g/ha) was 100%. The “AMARE pre-emergence efficacy” value ([13]; Dosage 320 g/ha) was 80%, the “POLCO pre-emergence efficacy” value ([15]; Dosage 80 g/ha) was 70% and the “POLCO pre-emergence efficacy” value ([15]; Dosage 320 g/ha) was 70%. For the same compound, the “STEME pre-emergence efficacy” value ([16]; Dosage 80 g/ha) was 100%, the “STEME pre-emergence efficacy” value ([16]; Dosage 320 g/ha) was 100% and the “SETVI pre-emergence efficacy” value ([17]; Dosage 80 g/ha) was 90%. For the same compound, the “SETVI pre-emergence efficacy” value ([17]; Dosage 320 g/ha) was 100%, the “ABUTH pre-emergence efficacy” value ([25]; Dosage 320 g/ha) was 70% and the “LOLMU pre-emergence efficacy (herbicidal activity)” value [18] was 60%. The “MATIN pre-emergence efficacy” value ([20]; Dosage 80 g/ha) was 90%, the “MATIN pre-emergence efficacy” value ([20]; Dosage 320 g/ha) was 100% and the “VIOTR pre-emergence efficacy” value ([21]; Dosage 80 g/ha) was 70%. For the same compound, the “VIOTR pre-emergence efficacy” value ([21]; Dosage 320 g/ha) was 100%.

Source: patent US10251395B2, “Substituted furano-/thienocycloalkylamino-2-pyrimidine derivatives and use thereof for controlling undesired plant growth” (Bayer CropScience Aktiengesellschaft, priority 2015, dated 2019)
